This is an account of results in PubChem BioAssay (NCI).

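Five compound concentrations were applied to cells in 96-well plates for 48 hours; endpoints were derived by simple linear interpolation of the resulting dose-response curve. Abbreviation: GI50, concentration required for 50% inhibition of growth. TGI: concentration producing complete growth inhibition.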

Test systems include 786-0 renal; A549 NSCLC; CAKI-1 renal; HL-60(TB) leukemia; IGROV1 ovarian; OVCAR-5 ovarian; PC-3 prostate; SF-295 CNS; SK-OV-3 ovarian; SR leukemia.
Holding throughout (experiment): NCI tumour cell line growth inhibition, 48 h

Take `CCCCCCCC(=O)SCC/C=C/[C@@H]1CC(=O)NCc2cccc(n2)CN(Cc2ccc(Cl)cc2)CC(=O)N[C@@H](C(C)C)C(=O)O1`: the GI50 was 22000 nM in the assay on 786-0 renal; 12.1 µM with A549 NSCLC; 28000 nM in the assay with CAKI-1 renal; 23100 nM in the assay with HL-60(TB) leukemia; 7020 nM with IGROV1 ovarian; 9980 nM in the assay with OVCAR-5 ovarian. Also, the GI50 was 15900 nM in the assay on PC-3 prostate, 4450 nM with SF-295 CNS, 6410 nM with SK-OV-3 ovarian and 3640 nM in the assay on SR leukemia. The TGI with 786-0 renal was more than 100 µM; with A549 NSCLC, 97.7 µM; in the assay with CAKI-1 renal, more than 100 µM; with HL-60(TB) leukemia, more than 100 µM; with IGROV1 ovarian, more than 100 µM; in the assay on OVCAR-5 ovarian, more than 100 µM. Besides, the TGI in the assay on PC-3 prostate is more than 100 µM; in the assay on SF-295 CNS, 20.3 µM; in the assay with SK-OV-3 ovarian, 42.7 µM; in the assay with SR leukemia, more than 100 µM.
For the compound `Cc1cc(CC(O)(C(F)(F)F)C(F)(F)F)cc(CC(O)(C(F)(F)F)C(F)(F)F)n1`, the TGI is 6.66 µM with 786-0 renal; 10.9 µM with A549 NSCLC; more than 100 µM in the assay with CAKI-1 renal; 7.85 µM with HL-60(TB) leukemia; 11.2 µM with IGROV1 ovarian; 19.2 µM in the assay with OVCAR-5 ovarian. Moreover, the values for the TGI in the assay on PC-3 prostate, with SF-295 CNS and with SR leukemia were 10.3 µM, 9.94 µM and 15.1 µM, respectively.
Regarding `CC1CCC(O)/C=C/C(=O)OC(C)C(O)/C=C/C(=O)O1` (configuration not stated), the TGI is more than 100 µM with 786-0 renal; more than 100 µM in the assay with A549 NSCLC; more than 100 µM in the assay on CAKI-1 renal; more than 79.5 µM in the assay with HL-60(TB) leukemia; more than 100 µM with IGROV1 ovarian; more than 100 µM with OVCAR-5 ovarian. Further, the TGI in the assay on PC-3 prostate, in the assay with SF-295 CNS, with SK-OV-3 ovarian and with SR leukemia was more than 100 µM in each case.
For `COc1cc(OC)cc(-c2n[nH]nc2-c2ccc3c(c2)OCO3)c1`, the GI50 in the assay with 786-0 renal was 618 nM; in the assay with A549 NSCLC it was 0.289 µM; with CAKI-1 renal, 316 nM; with IGROV1 ovarian, 432 nM; with OVCAR-5 ovarian it was 1470 nM; in the assay with PC-3 prostate it was 255 nM. The GI50 in the assay with SF-295 CNS is 98.9 nM; with SK-OV-3 ovarian, 486 nM; in the assay on SR leukemia it was 43.6 nM. The TGI with 786-0 renal was 63.5 µM; in the assay with A549 NSCLC it was 50.9 µM; in the assay with CAKI-1 renal, more than 100 µM; with IGROV1 ovarian, more than 100 µM; in the assay on OVCAR-5 ovarian, more than 100 µM; in the assay on PC-3 prostate, 43.7 µM. Also, the values for the TGI in the assay with SF-295 CNS, in the assay with SK-OV-3 ovarian and with SR leukemia were 3.61 µM, 93.2 µM and 11.6 µM, respectively.
`O=C(O)/C=C/C(=O)Nc1cccc2c1-c1ccccc1C2=O`: the TGI with 786-0 renal is more than 100 µM; with A549 NSCLC, more than 100 µM; with CAKI-1 renal it was more than 100 µM; in the assay with HL-60(TB) leukemia it was 6.9 µM; in the assay with IGROV1 ovarian, more than 100 µM; with OVCAR-5 ovarian, more than 100 µM. Moreover, the TGI in the assay on PC-3 prostate was more than 88.9 µM; with SF-295 CNS, more than 33.8 µM; in the assay with SK-OV-3 ovarian, more than 100 µM; in the assay with SR leukemia, more than 57.8 µM.
Consider `COc1ccc(/C(C#N)=C/c2nc3c(N4CCOCC4)nc(Cl)nc3n2C)cc1OC`, for which the GI50 in the assay with 786-0 renal was less than 10 nM; in the assay with A549 NSCLC it was less than 0.01 µM; in the assay with CAKI-1 renal it was less than 10 nM; in the assay with HL-60(TB) leukemia, less than 10 nM; in the assay on IGROV1 ovarian it was less than 10 nM; with OVCAR-5 ovarian, less than 17.1 nM. The GI50 with PC-3 prostate, in the assay with SF-295 CNS, in the assay with SK-OV-3 ovarian and with SR leukemia was less than 10 nM in each case. The TGI in the assay with 786-0 renal was 1.61 µM; in the assay with A549 NSCLC it was 1.92 µM; in the assay with CAKI-1 renal, 1.38 µM; in the assay with HL-60(TB) leukemia, less than 0.0112 µM; with IGROV1 ovarian it was 1.27 µM; in the assay with OVCAR-5 ovarian it was 2.32 µM. The TGI is 1.52 µM in the assay on PC-3 prostate, 2.17 µM in the assay with SF-295 CNS, 5.52 µM in the assay on SK-OV-3 ovarian and 3.68 µM in the assay with SR leukemia.
With `CC(C)n1c2c(c3ccccc3c1=O)C(=O)c1ccccc1-2`, the TGI in the assay on 786-0 renal, in the assay with A549 NSCLC, with CAKI-1 renal, in the assay with HL-60(TB) leukemia, in the assay on IGROV1 ovarian and in the assay on OVCAR-5 ovarian was more than 100 µM each time. Besides, the TGI in the assay on PC-3 prostate, with SF-295 CNS, with SK-OV-3 ovarian and with SR leukemia was more than 100 µM in each case.
With `CCSc1sc(-c2ccc(C)cc2)nc1[P+](c1ccccc1)(c1ccccc1)c1ccccc1`, the GI50 was 375 nM in the assay on 786-0 renal; 488 nM in the assay on CAKI-1 renal; 206 nM in the assay with HL-60(TB) leukemia; 376 nM with OVCAR-5 ovarian; 231 nM in the assay on PC-3 prostate; 235 nM with SF-295 CNS. For the same compound, the figures for the GI50 with SK-OV-3 ovarian and in the assay on SR leukemia were 262 nM and 354 nM, respectively. Also, the TGI with 786-0 renal was 1.57 µM; with CAKI-1 renal, 1.35 µM; in the assay on HL-60(TB) leukemia it was 0.542 µM; in the assay with OVCAR-5 ovarian it was 1.56 µM; in the assay on PC-3 prostate, 1.14 µM; in the assay on SF-295 CNS it was 0.736 µM. Moreover, the TGI is 0.898 µM in the assay on SK-OV-3 ovarian and 3.47 µM with SR leukemia.
For the compound `COc1ccc(NC(=O)CC(=O)n2nc(-c3ccccc3)c(N=Nc3ccc(C)cc3)c2-c2ccccc2)cc1`, the TGI with 786-0 renal is 45.6 µM; in the assay on A549 NSCLC it was 63.3 µM; in the assay on CAKI-1 renal, more than 100 µM; with HL-60(TB) leukemia, more than 100 µM; in the assay on IGROV1 ovarian it was 49.9 µM; with OVCAR-5 ovarian, more than 100 µM. Further, the TGI in the assay on PC-3 prostate was more than 57.9 µM; in the assay with SF-295 CNS it was 52.2 µM; in the assay on SK-OV-3 ovarian it was 40 µM; in the assay with SR leukemia, 98.3 µM.
Turning to `COC(=O)C1=C(O)C(C(=O)OC)[C@@]2(O)[C@@H](C(=O)OC)C(c3ccccc3C(F)(F)F)C[C@@H]1[C@@H]2C(=O)OC` (some centres not stated), the GI50 with 786-0 renal is 4490 nM; with A549 NSCLC it was 10.4 µM; in the assay on CAKI-1 renal, 2710 nM; in the assay with OVCAR-5 ovarian, 17400 nM; with PC-3 prostate, 6020 nM; in the assay on SK-OV-3 ovarian, 1580 nM. Besides, the GI50 in the assay with SR leukemia is 2820 nM. Besides, the TGI with 786-0 renal turned out to be 16.4 µM; in the assay with A549 NSCLC, 27 µM; with CAKI-1 renal, 6.73 µM; with OVCAR-5 ovarian, 33.3 µM; in the assay with PC-3 prostate, 24.7 µM; with SK-OV-3 ovarian, 7 µM. Besides, the TGI with SR leukemia was found to be 62.4 µM.
